Data taken from ChEMBL document CHEMBL4804283, “Stk19 inhibitors for treatment of cancer” (2020).
Activity calls are given as the source filed them.

Columns and labels:
[1] = target: T1, Histone-lysine N-methyltransferase EHMT2 (Homo sapiens) (UniProt Q96KQ7); experiment: Inhibition of G9a in human WM2032 cells expressing NRAS Q61R and wild-type BRAF at 100-300 nM relative to control; format: cell-based
T1 sequence (whole entry): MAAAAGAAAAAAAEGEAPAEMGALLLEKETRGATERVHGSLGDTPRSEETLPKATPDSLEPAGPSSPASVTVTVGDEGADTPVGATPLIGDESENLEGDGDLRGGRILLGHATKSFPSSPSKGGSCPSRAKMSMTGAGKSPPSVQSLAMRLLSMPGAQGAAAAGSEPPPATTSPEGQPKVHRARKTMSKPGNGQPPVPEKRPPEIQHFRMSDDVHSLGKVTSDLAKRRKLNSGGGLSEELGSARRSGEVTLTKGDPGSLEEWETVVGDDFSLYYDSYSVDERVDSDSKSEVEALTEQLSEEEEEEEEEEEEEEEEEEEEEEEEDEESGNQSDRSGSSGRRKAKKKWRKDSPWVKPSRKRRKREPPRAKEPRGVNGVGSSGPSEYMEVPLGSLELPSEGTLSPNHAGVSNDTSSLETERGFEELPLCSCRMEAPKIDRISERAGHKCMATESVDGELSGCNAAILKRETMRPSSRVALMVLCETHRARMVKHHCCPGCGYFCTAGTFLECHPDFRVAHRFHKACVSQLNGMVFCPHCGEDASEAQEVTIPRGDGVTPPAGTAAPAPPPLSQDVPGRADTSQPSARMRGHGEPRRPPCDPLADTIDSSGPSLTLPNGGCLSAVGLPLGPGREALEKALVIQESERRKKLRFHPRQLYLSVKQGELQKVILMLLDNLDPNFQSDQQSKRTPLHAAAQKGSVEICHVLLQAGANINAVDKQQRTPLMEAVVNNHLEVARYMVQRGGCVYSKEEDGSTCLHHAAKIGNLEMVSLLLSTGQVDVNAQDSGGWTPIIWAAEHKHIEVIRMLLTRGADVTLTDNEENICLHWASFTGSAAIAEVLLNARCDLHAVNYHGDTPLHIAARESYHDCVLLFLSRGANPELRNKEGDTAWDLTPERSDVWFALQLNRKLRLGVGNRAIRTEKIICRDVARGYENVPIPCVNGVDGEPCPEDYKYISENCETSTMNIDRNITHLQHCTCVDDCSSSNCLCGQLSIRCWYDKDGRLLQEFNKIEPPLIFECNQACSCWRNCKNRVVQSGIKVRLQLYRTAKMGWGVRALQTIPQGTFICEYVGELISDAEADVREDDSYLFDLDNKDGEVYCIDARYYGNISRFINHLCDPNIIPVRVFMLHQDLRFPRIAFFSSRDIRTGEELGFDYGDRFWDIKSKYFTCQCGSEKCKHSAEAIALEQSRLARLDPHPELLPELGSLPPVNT

[2] = test system: SK-MEL-2; experiment: Inhibition of STK19 in nude mouse xenografted with human SK-MEL-2 cells assessed as decrease in NRAS phosphorylation at 50 mg/kg; format: functional, organism-based
[3] = test system: SK-MEL-2; experiment: Antitumor activity against human SK-MEL-2 cells xenografted in nude mouse assessed as inhibition of cancer cell proliferation at 50 mg/kg, administered for 21 days; format: functional, organism-based
[4] = target: T2, Inactive serine/threonine-protein kinase 19 (Homo sapiens) (UniProt P49842); experiment: Inhibition of wild-type STK19 in human primary melanocytes at 0.1-3 uM relative to control; format: cell-based
T2 sequence (whole entry): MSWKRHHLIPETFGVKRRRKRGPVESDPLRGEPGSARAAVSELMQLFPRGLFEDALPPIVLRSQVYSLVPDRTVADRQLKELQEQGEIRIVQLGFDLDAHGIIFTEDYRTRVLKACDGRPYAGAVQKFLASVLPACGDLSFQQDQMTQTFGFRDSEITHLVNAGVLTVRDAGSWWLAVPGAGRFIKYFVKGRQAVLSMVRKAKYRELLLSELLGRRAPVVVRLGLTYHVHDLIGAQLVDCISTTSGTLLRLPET

[5] = Toxicity in C57BL/6J mouse assessed as effect on alanine aminotransferase level at 25 mg/kg, administered twice daily for 20 days; format: organism-based; settings: in vivo, 480 h
[6] = test system: hTERT; experiment: Antiproliferative activity against hTERT/p53DD/CDK4 (R24C) immortal melanocytes expressing STK19 D89N mutant at 3 uM relative to control; format: functional, tissue-based; settings: Homo sapiens
[7] = test system: WM2032; experiment: Induction of apoptosis in human WM2032 cells expressing NRAS Q61R and wild-type BRAF at 1-3 uM relative to control; format: functional, cell-based
[8] = Toxicity in C57BL/6J mouse assessed as lung histology at 25 mg/kg, administered twice daily for 20 days by H and E staining method; format: organism-based; settings: in vivo, 480 h
[9] = Toxicity in C57BL/6J mouse assessed as heart histology at 25 mg/kg, administered twice daily for 20 days by H and E staining method; format: organism-based; settings: in vivo, 480 h
[10] = Toxicity in C57BL/6J mouse assessed as effect on albumin level at 25 mg/kg, administered twice daily for 20 days; format: organism-based; settings: in vivo, 480 h
[11] = Toxicity in C57BL/6J mouse assessed as effect on lactic dehydrogenase level at 25 mg/kg, administered twice daily for 20 days; format: organism-based; settings: in vivo, 480 h
[12] = target: T2, Inactive serine/threonine-protein kinase 19 (Homo sapiens); experiment: Inhibition of STK19 in human WM2032 cells expressing NRAS Q61R and wild-type BRAF at 100 nM assessed as H3K9 methylation relative to control; format: cell-based
[13] = target: T1, Histone-lysine N-methyltransferase EHMT2 (Homo sapiens); experiment: Inhibition of G9a in human SK-MEL-2 cells expressing NRAS Q61R and wild-type BRAF at 100-300 nM relative to control; format: cell-based
[14] = Toxicity in C57BL/6J mouse assessed as spleen histology at 25 mg/kg, administered twice daily for 20 days by H and E staining method; format: organism-based; settings: in vivo, 480 h
[15] = test system: SK-MEL-2; experiment: Inhibition of G9a in nude mouse xenografted with human SK-MEL-2 cells assessed as decrease in H3K9 methylation at 25 mg/kg; format: functional, organism-based
[16] = Toxicity in C57BL/6J mouse assessed as effect on alkaline phosphatase level at 25 mg/kg, administered twice daily for 20 days; format: organism-based; settings: in vivo, 480 h
[17] = target: T2, Inactive serine/threonine-protein kinase 19 (Homo sapiens); experiment: Inhibition of STK19 in human A375 cells expressing wild-type NRAS and BRAF V600E mutant at 1-3 uM assessed as NRAS signaling relative to control; format: cell-based; settings: A-375
[18] = test system: A-375; experiment: Induction of apoptosis in human A375 cells expressing wild-type NRAS and BRAF V600E mutant at 1-3 uM relative to control; format: functional, cell-based
[19] = target: T2, Inactive serine/threonine-protein kinase 19 (Homo sapiens); experiment: Inhibition of STK19 in human SK-MEL-2 cells expressing NRAS Q61R and wild-type BRAF at 1-3 uM assessed as PI3K signaling relative to control; format: cell-based
[20] = test system: hTERT; experiment: Inhibition of colony formation in hTERT/p53DD/CDK4 (R24C) immortal melanocytes expressing wild-type STK19 at 3 uM relative to control; format: functional; settings: Homo sapiens
[21] = target: T2, Inactive serine/threonine-protein kinase 19 (Homo sapiens); experiment: Inhibition of STK19 in STK19-depleted human primary melanocytes expressing wild-type STK19 at 1-3 uM assessed as NRAS phosphorylation relative to control; format: tissue-based; settings: Melanocyte
[22] = target: T2, Inactive serine/threonine-protein kinase 19 (Homo sapiens); experiment: Inhibition of STK19 in human WM2032 cells expressing NRAS Q61R and wild-type BRAF at 1-3 uM assessed as PI3K signaling relative to control; format: cell-based

COc1cc2nc(NC3CC3)nc(NC3CCN(C(C)C)CC3)c2cc1OC.O=C(O)C(F)(F)F
Non-Toxic: Activity [5] | Activity [8] | Activity [9] | Activity [10] | Activity [11] | Activity [14] | Activity [16]
inactive: inhibition [1] | inhibition [12] | inhibition [13] | inhibition [15] | inhibition [17] | Activity [18]
active: inhibition [2] | Activity [3] | inhibition [4] | Activity [6] | Activity [7] | inhibition [19] | Activity [20] | inhibition [21] | inhibition [22]
